Assay results: patent US20220211038A1, “COMPOSITION AND METHOD FOR PROTECTING PLANT AGAINST DISEASE AND PEST” (SUMITOMO CHEMICAL COMPANY, LIMITED, priority 2019, published 2022)

How the values were obtained:
[1] = tested on: powdery mildew (Sphaerotheca fuliginea); experiment: Cucumber powdery mildew control, spray on plantlets (Test Example 2); format: in vivo; conditions: 10 days
Source text: Fluopyram and fluxapyroxad were respectively mixed with surfactant and crushed in a grinding equipment to obtain a crushed composition. The crushed composition was then mixed with tap water so as to have the compound at the concentration described in Table 2 to obtain spray liquid. The spray liquid was sprayed onto cucumber (Cultivar: Hanjiro Fushinari) plantlet at run-off water volume. Plantlets were then air dried before artificially inoculated by putting the test plantlets in the same room where cucumber with powdery mildew (Sphaerotheca fuliginea) symptoms were grown. The plantlet were grown in the room for 10 days and the degree of disease severity on leaves was measured (hereinafter referred to as “treated group”).
The same operation was carried out […] (hereinafter referred to as “untreated group”).
The controlling value was calculated from each of the obtained degree of disease severity on leaves of the treated group and the untreated group respectively by the following “Equation 2”.
Controlling value (%)=100×(X−Y)/X Equation 2
X: Degree of disease severity on leaves in the untreated group
Y: Degree of disease severity on leaves in the treated group

[2] = tested on: Septoria leaf blotch (Mycosphaerella graminicola); experiment: Growth inhibition of Septoria leaf blotch in YBG medium, microtiter plate, absorbance at 600 nm (Test Example 1); format: cell-based; conditions: 18° C., four days
Description: Fluopyram and fluxapyroxad were respectively dissolved in dimethyl sulfoxide, and agent solutions were prepared so that the concentration of each compound was 100 times the concentration described in Table 1. The agent solution was dispensed into each well of a microtiter plate (96 wells) in 1 μl portion, and then 99 μL of YBG medium to which conidia of Septoria leaf blotch (Mycosphaerella graminicola) was inoculated in advance (which was prepared by dissolving 10 g of yeast extract, 10 g of Bacto Peptone, and 20 mL of glycerol into 1 L of water, followed by sterilizing the medium) was dispensed into each of the well to which the agent solution was dispensed. The plate was cultivated at 18° C. for four days, thereby allowing Septoria leaf blotch to undergo proliferation, and the absorbance at 600 nm of a sample in each well of the microtiter plate was then measured to examine a degree of growth of Septoria leaf blotch (hereinafter referred to as “treated group”). Whereas, Septoria leaf blotch was grown similarly to the case of the treated group using dimethyl sulfoxide instead of the agent solution, and the degree of growth was measured (hereinafter referred to as “untreated group”). The efficacy was calculated from each of the obtained degree of growth of the treated group and the untreated group respectively by the following “Equation 1”.
Efficacy (%)=100×(X−Y)/X Equation 1
X: Degree of growth of fungus in the untreated group
Y: Degree of growth of fungus in the treated group

| Compound | Controlling value (%) ([1]; Fluopyram 0.4 mg/L alone) | Controlling value (%) ([1]; Fluopyram 4.0 mg/L alone) | Efficacy (%) ([2]; Fluopyram 0.1 ppm alone) | Efficacy (%) ([2]; Fluopyram 1.75 ppm alone) | Controlling value (%) ([1]; Fluxapyroxad 0.4 mg/L alone) | Controlling value (%) ([1]; Fluxapyroxad 2.0 mg/L alone) | Efficacy (%) ([2]; Fluxapyroxad 0.18 ppm alone) | Efficacy (%) ([2]; Fluxapyroxad 0.5 ppm alone) |
| --- | --- | --- | --- | --- | --- | --- | --- | --- |
| O=C(NCCc1ncc(C(F)(F)F)cc1Cl)c1ccccc1C(F)(F)F [Fluopyram] | 32% | 50% | 24% | 60% | – | – | – | – |
| Cn1cc(C(=O)Nc2ccccc2-c2cc(F)c(F)c(F)c2)c(C(F)F)n1 [Fluxapyroxad] | – | – | – | – | 16% | 34% | 71% | 82% |
